Measured values as given in patent US20150216870A1, “Combination of PI3K Inhibitor and C-Met Inhibitor” (Novartis AG, priority 2012, published 2015).
Entries after “also recorded” stand apart in the source; their conditions may differ.

Experiments:
[1] = system: NCI-H1648; assay: Cell viability (CellTiterGlo) combination dose matrix in NCI-H1648; assay type: cell-based, human; conditions: combination with c-Met inhibitor, 72 h, excluding highest concentration
Experimental: (§3) Compound stocks of both compounds are individually prepared in DMSO. Compounds are serially diluted using a Tecan dispenser to cover a ˜1000× range of concentrations. […] Both single agent and combinations are tested at multiple concentrations, along with controls and one self-cross.
(§4) The cell lines used in this study are purchased from American Type Cell Collection, including human non small cell lung cancer cell lines EBC-1 (which bears c-Met amplification), NCI-H1993 (which bears c-MET amplified), NCI-H1648 (which bears c-Met amplification), NCI-H1573 (which bears c-Met amplification and KRAS mutation) and HCC2935 (EGFR mutation). All cell lines are maintained in their respective culture medium as specified by the provider.
(§5) For the assessment of combination effects, cells are seeded into 384-well plates at 500 cells/well and incubated overnight. […]
(§6) Effects of single agents as well as their combination on cell viability is assessed after 72 hours of incubation at 37° C./5% CO2 by quantification of cellular ATP levels (CellTiterGlo, Promega) using 25 μL reagent/well and n=2 replicate plates per condition. The number/viability of cells at time of compound addition is likewise assessed and used to estimate the population doubling time of a cell line.
(§7) For untreated and treated levels U and T, inhibition is calculated using the formula I=1−T/U, which ranges from 0% to 100% for complete inhibition. […]
(§8) The Loewe expectation [Loewe S., Ergebn Physiol 27: 47-187 (1928)) is calculated at each dose pair CX,Y by finding the inhibition ILoewe such that (CX/ICX)+(CY/ICY)=1, and ICX,Y are the effective concentrations at ILoewe for the fitted single agent curves, using numerical optimization [Berenbaum M C, J Theor Biol 114: 413-431 (1985)]. The “synergy score” S is calculated by averaging the difference between Idata and ILoewe across all the tested combination dose points, excluding the highest concentration point in the dose matrix, which is most likely to be dominated by drug off-target effects. […]

[2] = system: EBC-1; assay: Cell viability (CellTiterGlo) combination dose matrix in EBC-1; assay type: cell-based, human; conditions: combination with c-Met inhibitor, 72 h, excluding highest concentration, 0 no inhibition, 1 = 100% inhibition/stasis, 2 = cell death
Experimental: as §3, §4, §5, §6, §7, §8

[3] = system: HCC2935; assay: Cell viability (CellTiterGlo) combination dose matrix in HCC2935; assay type: cell-based, human; conditions: combination with c-Met inhibitor, 72 h, excluding highest concentration
Experimental: as §3, §4, §5, §6, §7, §8

[4] = system: NCI-H1993; assay: Cell viability (CellTiterGlo) combination dose matrix in NCI-H1993; assay type: cell-based, human; conditions: combination with c-Met inhibitor, 72 h, excluding highest concentration
Experimental: as §3, §4, §5, §6, §7, §8

[5] = system: NCI-H1573; assay: Cell viability (CellTiterGlo) combination dose matrix in NCI-H1573; assay type: cell-based, human; conditions: combination with c-Met inhibitor, 72 h, excluding highest concentration
Experimental: as §3, §4, §5, §6, §7, §8

[6] = system: NCI-H1993 human non-small cell lung carcinoma xenograft; assay: NCI-H1993 xenograft tumor growth inhibition and tumor growth delay; assay type: in vivo, athymic nude mice; conditions: COMPOUND D 30 mg/kg p.o. qd to end
Text: In this experiment, the NCI-H1993 human non-small cell lung carcinoma xenograft model is used to assess the anti-tumor efficacy of the PI3K inhibitor COMPOUND D and c-Met inhibitor 2-fluoro-N-methyl-4-[7-quinolin-6-yl-methyl)-imidazo[1,2-b][1,2,4]triazin-2yl]benzamide as single agents or in combination. NCI-H1993 tumor cells obtained from the American Type Culture Collection (ATCC) are derived from a lymph node metastasis of a patient having a stage 3A lung adenocarcinoma and a history of smoking.
(§1) Female athymic nude mice (Crl:NU (Ncr)-Foxn1^nu, Charles River) are 8 weeks old, and have a body weight (BW) range of 16.1-26.2 g, on D1 of the study. The animals are fed ad libitum water (reverse osmosis, 1 ppm CI) and NIH 31 Modified and Irradiated Lab Diet® consisting of 18.0% crude protein, 5.0% crude fat, and 5.0% crude fiber. The mice are housed on irradiated Enrich-O'cobs™ Laboratory Animal Bedding in static microisolators on a 12-hour light cycle at 20-22° C. (68-72° F.) and 40-60% humidity.
The NCI-H1993 tumor line is obtained from the American Type Culture Collection and maintained at DRS_NC in RPMI-1640 medium containing 100 unites/penicillin G sodium, 100 µg/mL streptomycin sulfate, 25 µg/mL gentamicin, 10% fetal bovine serum, and 2 mM glutamine. The tumor cells are cultured in tissue culture flasks in a humidified incubator at 37° C. in an atmosphere of 5% CO2 and 95% air.
The tumor cells used for implementation are harvested during log phase growth and resuspended in cold PBS containing 50% Matrigel™ (BD Biosciences). Each mouse is injected subcutaneously in the right flank with 1×10^7 cells (0.2 mL cell suspension). Tumors are calipered in two dimensions to monitor growth as their mean volume approached the desired 200-250 mm^3 range. Tumor size, in mm^3, was calculated from: Tumor Volume=(width^2×length)/2, where width and length (in mm) are measurements of the tumor. Tumor weight can be estimated with the assumption that 1 mg is equivalent to 1 mm^3 of tumor volume. Fourteen days after tumor cell implantation, on D1 of the study, mice with individual tumor volumes of 172-256 mm^3 are sorted into groups of ten mice, with group mean tumor volumes of 206-215 mm^3.
The c-Met inhibitor 2-fluoro-N-methyl-4-[7-quinolin-6-yl-methyl)-imidazo[1,2-b][1,2,4]triazin-2yl]benzamide (HCl salt, 84.98% free base) is stored at 4° C. and is added to a volume of deionized water equal to 1/2 of the final volume and sonicated until dissolved to obtain a uniform 2× suspension. An equal volume of 0.5% methylcellulose: 0.1% Tween® 80 is added to provide a 1.77 mg/mL solution with final vehicle concentrations of 0.25% methylcellulose and 0.05% Tween® 80 in deionized water (Vehicle 1). Fresh solutions are prepared once daily for the […]. dosing and stored at room temperature until the a.m. dosing.
COMPOUND D is suspended at 3.0 mg/mL in 0.5% methylcellulose in deionized water. The vehicle is added in portions equal to 1/3 of the final volume. The suspension is vortexed after each addition, and then finally probe sonicated on ice to prepare a homogeneous white suspension. A fresh suspension is prepared weekly, stored at 4° C., and re-suspended prior to dosing.
The c-MET inhibitor and the vehicle is each administered via oral gavage (p.o.) twice daily for the duration of the study (b.i.d. to end). COMPOUND D is administered via oral gavage (p.o.) once daily for the duration of the study (qd to end). In combination therapies, COMPOUND D is dosed within 30 minutes after the c-Met inhibitor. In all groups, the dosing volume of 10 mL/kg (0.2 mL/20 g mouse) is scaled to the weight of each animal as determined on the day of dosing, except on weekends when the previous BW is carried forward.
The groups of nude mice (n=10/group) are treated as follows. Group 1 receive Vehicle 1 and Vehicle 2 and serve as controls for the study. […] Group 3 receives 30 mg/kg COMPOUND D monotherapy once daily for the duration of the study (qd to end).

[7] = Toxicity (body weight, deaths) in NCI-H1993 xenograft study; assay type: in vivo; conditions: COMPOUND D 30 mg/kg p.o. qd to end
Experimental: (§2) Animals are weighed on Days 1-5, on each treatment day (except weekends), and twice weekly thereafter, until the end of the study. The maximum group mean body weight (BW) loss is determined for the interval between D1 and D20 as well as for the entire study. Group mean BW nadir determinations exclude measurements taken after more than 50% of the assessable mice in the group have exited the study, and also exclude any animal that was classified as a non-treatment related (NTR) death during the study. Acceptable toxicity for the maximum tolerated dose (MTD) is defined as a group mean BW loss of less than 15% during the test, and not more than one TR death among ten animals. Any animal with BW losses exceeding 15% for three consecutive measurements, or with a BW loss exceeding 20% for one measurement, are euthanized, and classified as a TR death unless it was the first death in the group. A death is classified as NTR if there was no evidence that the death is related to treatment side effects and the death occurs more than 14 days after dosing ended. NTR deaths are categorized as NTRa (due to accident or error), NTRu (due to unknown causes), or NTRm (necropsy-confirmed tumor dissemination by invasion and/or metastasis). To conserve animals while providing maximum information, the first death in a group was classified as NTRu; such an NTR death was to be reclassified as TR if two subsequent TR deaths are recorded in the same group.

[8] = system: U-87 MG human glioblastoma xenograft; assay: U-87 MG xenograft tumor growth inhibition and tumor growth delay; assay type: in vivo, nude mice; conditions: temozolomide 100 mg/kg p.o. qd x5
Experimental: In this experiment, the U-87 MG human glioblastoma xenograft model is used to assess the anti-tumor efficacy of the PI3K inhibitor COMPOUND C and c-Met inhibitor 2-fluoro-N-methyl-4-[7-quinolin-6-yl-methyl)-imidazo[1,2-b][1,2,4]triazin-2yl]benzamide as single agents or in combination. U-87 MG tumor cells obtained from the National Cancer Institute are reported to be homozygous for likely oncogenic variants of CDKN2A, CDKN2C, CDKN2a, and PTEN; no mutations are detected in MET, PIK3CA, or 58 other genes that are frequently altered in neoplastic cells; and HGF expressing.
Mice are treated daily for 21 days with 17.7 and 35.3 mg/kg of the c-Met inhibitor and 32.7 mg/kg COMPOUND C monotherapies, and with the c-Met inhibitor/COMPOUND C dual therapy at 17.7:32.7. An c-Met inhibitor/COMPOUND C combination at the 58.8:5.4 mg/kg dose ratio was included in the study. The control mice received both vehicles, and a standard preclinical temozolomide regimen monitored tumor model performance. The oral treatments began on Day 1 (D1) in nude mice with established subcutaneous tumors. Each animal was euthanized when its tumor reached the predetermined 2000 mm3 endpoint volume, or on D60, whichever came first. The study was terminated on D51. […] Overall efficacy was determined from the times required for tumors to progress to the volume endpoint, and from D51 survival and regression rates. This report describes the methods and results of the U87MG-e326 tumor growth delay experiment.
as §1, with “The” for “Female athymic nude mice (Crl:NU (Ncr)-Foxn1^nu, Charles River) are 8 weeks old, and have a body weight (BW) range of 16.1-26.2 g, on D1 of the study. The”
The U-87 MG tumor line is obtained from the American Type Culture Collection and maintained by serial engraftment in nude mice. A tumor fragment (1 mm^3) is implanted subcutaneously into the right flank of each test mouse. Tumors are calipered in two dimensions to monitor growth as their mean volume approached the desired 100-150 mm^3 range. Tumor size, in mm^3, was calculated from: Tumor Volume=(width^2×length)/2, where width and length (in mm) are measurements of the tumor. Tumor weight can be estimated with the assumption that 1 mg is equivalent to 1 mm^3 of tumor volume. Fourteen days after tumor cell implantation, on D1 of the study, mice with individual tumor volumes of 63-196 mm^3 are sorted into seven groups, with group mean tumor volumes of 122-127 mm^3.
The c-Met inhibitor 2-fluoro-N-methyl-4-[7-quinolin-6-yl-methyl)-imidazo[1,2-b][1,2,4]triazin-2yl]benzamide (di-HCl salt, 84.98% free base) is stored at 4° C. and is added to deionized water at 2× the final concentration and sonicated until dissolved. An equal volume of 0.5% methylcellulose and 0.1% Tween® 80 in deionized water is added to provide a 5.884 mg/mL dosing solution in 0.25% methylcellulose and 0.05% Tween® 80 in deionized water (Vehicle 1). Portions of this solution are diluted with Vehicle 1 to provide 3.53 and 1.765 mg/mL dosing solutions.
COMPOUND C (HCl salt, 91.85% free base) is stored at −20° C. and is added to 1% Tween® 80 in deionized water and sonicated to obtain a uniform suspension at 2× the final concentration. […] The 0.544 mg/mL dosing suspension is obtained by diluting a portion of the first suspension with Vehicle 2.

[9] = Toxicity (deaths) in U-87 MG xenograft study; assay type: in vivo; conditions: temozolomide 100 mg/kg p.o. qd x5
Text: as §2, with “the study. Group mean” for “the study. The maximum group mean body weight (BW) loss is determined for the interval between D1 and D20 as well as for the entire study. Group mean”, “the group had exited the” for “the group have exited the”, “and also excluded any animal” for “and also exclude any animal”, “classified as an NTR death during” for “classified as a non-treatment related (NTR) death during”, “classified as Non-Treatment Related (NTR) if there” for “classified as NTR if there”

Cn1c(=O)n(-c2ccc(C(C)(C)C#N)cc2)c2c3cc(-c4cnc5ccccc5c4)ccc3ncc21 [COMPOUND A, 2-methyl-2-[4-(3-methyl-2-oxo-8-quinolin-3-yl-2,3-dihydro-imidazo[4,5-c]quinolin-1-yl)-phenyl]-propionitrile]
MaxGI (GImax, combination effectiveness) [1]: 1.72 | MaxGI (GImax, combination effectiveness) [2]: 1.90 | MaxGI (GImax, combination effectiveness) [3]: 1.36 | MaxGI (GImax, combination effectiveness) [4]: 1.33 | MaxGI (GImax, combination effectiveness) [5]: 1.90

Cc1nc(NC(=O)N2CCC[C@H]2C(N)=O)sc1-c1ccnc(C(C)(C)C(F)(F)F)c1 [COMPOUND D, (S)-Pyrrolidine-1,2-dicarboxylic acid 2-amide 1-({4-methyl-5-[2-(2,2,2-trifluoro-1,1-dimethyl-ethyl)-pyridin-4-yl]-thiazol-2-yl}-amide)]
% TGD [6]: −4% | D20 tumor growth inhibition / activity (in words) [6]: non-significant median tumor growth acceleration; also recorded: not significantly active (inactive) | T-C [6]: -1.1 days | T/C or T/T0 ([6]; D20): 117% | Median TTE ([6]; endpoint 600 mm3): 24.0 days | Regression: PR ([6]; number of animals): 1 PR | overall survival (in words) ([6]; vs control Group 1): non-significantly briefer overall survival than control | MaxGI (GImax, combination effectiveness) [1]: 1.37 | MaxGI (GImax, combination effectiveness) [2]: 1.87 | MaxGI (GImax, combination effectiveness) [3]: 0.77 | Deaths [7]: (0) | tolerability (in words) [7]: Well-tolerated | MaxGI (GImax, combination effectiveness) [4]: 1.21 | MaxGI (GImax, combination effectiveness) [5]: 0.57

Cn1nnc2c(C(N)=O)ncn2c1=O [Temozolomide, reference compound]
% TGD [8]: 51% | T/C or T/T0 ([8]; D13): 48% | Median TTE ([8]; endpoint 2000 mm3): 17.7 days | Regress. ([8]; number of animals): 0 | Deaths [9]: (0)
